# Measurements: US5164381A, “Pharmacologically active 1,5-diaryl-3-substituted pyrazoles and method for synthesizing the same” (Ortho Pharmaceutical Corporation, priority 1991, dated 1992)
# Test system: C-reactive protein
# Test: not given
# Conditions: rheumatoid arthritis patients; cited from earlier work
row,Structure (SMILES),C-reactive protein levels (in words)
1,"NC(=O)N1C(=O)C(=C(O)c2cccs2)c2cc(Cl)ccc21 [CP 66,248]",reduction of C-reactive protein levels

# Test system: bronchospasm / LTB4
# Test: Arachidonic acid-induced bronchospasm and LTB4 blood levels in anesthetized guinea pigs
# Type: in vivo
# Conditions: AA i.v. 10 mg/kg
# Protocol: Intravenous administration of 10 mg/kg AA to anesthetized guinea pigs pretreated with indomethacin (10 mg/kg) and propranolol (0.1 mg/kg) results in a sustained bronchospasm which is associated with increased blood levels of LTB4. […] In the dog, intraarticular injection of rabbit anti-dog-dog IgG immune complexes into the knee joint results in an acute synovitis characterized by an influx of inflammatory cells into the joint space as well as an increase in synovial fluid levels of PGE2 and LTB4.
Structure (SMILES),effect on LTB4 levels (in words),effect on bronchospasm (in words)
COc1ccc2c(c1)c(CC(=O)O)c(C)n2C(=O)c1ccc(Cl)cc1 [indomethacin],no effect,no effect

# Test system: interleukin-1
# Test: not given
# Conditions: in vitro and in vivo; cited from earlier work
row,Structure (SMILES),inhibition of interleukin-1 levels (in words)
1,"NC(=O)N1C(=O)C(=C(O)c2cccs2)c2cc(Cl)ccc21 [CP 66,248]",could inhibit interleukin-1 levels in vitro and in vivo

# Test system: cyclooxygenase (CO)
# Test: not given
# Conditions: cited from earlier work
row,Structure (SMILES),inhibition of cyclooxygenase enzyme by NSAIDs (in words)
1,COc1ccc2c(c1)c(CC(=O)O)c(C)n2C(=O)c1ccc(Cl)cc1 [indomethacin],only inhibit the cyclooxygenase enzyme

# Test system: Lewis strain laboratory rats
# Test: In vivo alleviation of inflammation: polyarthritis (adjuvant, Mycobacterium butyricum) in rats, inhibition of paw volume increase
# Conditions: Rattus norvegicus, po, rat; read-out: ED50 (effective dose to obtain a 50% inhibition of inflammation)
# Protocol: Polyarthritis was induced in Lewis strain laboratory rats (weight=about 200 grams) by injection of a suspension of Mycobacterium butyricum in mineral oil into the subplantar tissue of the mammal's hind paws. On day 10 after the injection, the rats were assigned to groups, and paw volumes and body weights were recorded. Paw volumes of the contralateral, uninjected hind paw were determined by mercury plethylsmography. Per oral (p.o.) dosing began and continued for five consecutive days thereafter. On day 14 after the initial injection, approximately four hours after the final dose was administered, paw volumes and body weights were recorded and quantitated.
# Anti-inflammatory activity of the substituted pyrazole compounds is expressed as the percent inhibition of paw volume increase.
row,Structure (SMILES),ED50 [mg/kg]
1,"COc1ccc(-n2nc(CCC(=O)N(C)OC(=O)CCl)cc2-c2ccc(Cl)cc2)cc1 [Compound 139, 3-[5-(4-Chlorophenyl)-1-(4-methoxyphenyl)-3-pyrazolyl]N-chloroacetyloxy-N-methylpropanamide]",6
2,"COc1ccc(-n2nc(CCCN(O)C(=O)C(=O)NO)cc2-c2ccc(Cl)cc2)cc1 [Compound 158, N-[3-[5-(4-Chlorophenyl)-1-(4-methoxyphenyl)-3-pyrazolyl]propyl]-N,N'-dihydroxyoxamide]",33.4

# Same assay, conditions: po, 336 h; 9 mpk p.o., rat; read-out: % INH. p.o. (percentage inhibition of pad swelling)
row,Structure (SMILES),inhibition in vivo at 9 mg/kg [%]
1,COc1ccc(-n2nc(CCCN(O)S(C)(=O)=O)cc2-c2ccc(Cl)cc2)cc1 [Compound 156],34

# Same assay, conditions: po, 336 h; 10 mpk p.o., rat; read-out: % INH. p.o. (percentage inhibition of pad swelling)
row,Structure (SMILES),inhibition in vivo at 10 mg/kg [%]
1,CCN(CC)C(=O)CCC(=O)ON(C)C(=O)CCc1cc(-c2ccc(Cl)cc2)n(-c2ccc(OC)cc2)n1 [Compound 137],54
2,COc1ccc(-n2nc(CCC(=O)N(C)OC(=O)C(C)(C)C)cc2-c2ccc(Cl)cc2)cc1 [Compound 141],17
3,COCC(=O)ON(C)C(=O)CCc1cc(-c2ccc(Cl)cc2)n(-c2ccc(OC)cc2)n1 [Compound 142],67
4,CCOC(=O)C(C)N(O)C(=O)CCc1cc(-c2ccc(Cl)cc2)n(-c2ccc(OC)cc2)n1 (stereo not shown) [Compound 144],55
5,COc1ccc(-n2nc(CCC(=O)N(O)C(C)C(=O)O)cc2-c2ccc(Cl)cc2)cc1 (stereo not shown) [Compound 145],61
6,CCCCCCCCN(O)C(=O)CCc1cc(-c2ccc(Cl)cc2)n(-c2ccc(OC)cc2)n1 [Compound 146],29
7,"COc1ccc(-n2nc(CCCN(O)C(C)=O)cc2-c2ccc(Cl)cc2)cc1 [Compound 152, N-[3-[5-(4-Chlorophenyl)-1-(4-methoxyphenyl)-3-pyrazolyl]propyl]-N-hydroxy-acetamide]",40
8,COc1ccc(-n2nc(CCCN(O)C(=O)C(C)(C)C)cc2-c2ccc(Cl)cc2)cc1 [Compound 153],49
9,CCCCCCCC(=O)N(O)CCCc1cc(-c2ccc(Cl)cc2)n(-c2ccc(OC)cc2)n1 [Compound 154],11
10,COc1ccc(-n2nc(CCCN(O)C(=O)c3ccccc3)cc2-c2ccc(Cl)cc2)cc1 [Compound 155],45
11,"CCOC(=O)C(=O)N(O)CCCc1cc(-c2ccc(Cl)cc2)n(-c2ccc(OC)cc2)n1 [Compound 157, Ethyl N-[3-[5-(4-chlorophenyl)-1-(4-methoxyphenyl)-3-pyrazolyl]-propyl]-hydroxyoxamate]",51
12,"COc1ccc(-n2nc(CCC(=O)N(O)C(C)=O)cc2-c2ccc(Cl)cc2)cc1 [Compound 171, N-Acetyl-3-[5-(4-chlorophenyl)-1-(4-methoxyphenyl)-3-pyrazolyl]-N-hydroxy-propanamide]",62
13,CCC(CCc1cc(-c2ccc(Cl)cc2)n(-c2ccc(OC)cc2)n1)=NNc1nccs1 [Compound 175],16
14,COc1ccc(-n2nc(CCC(O)C(C)(C)C)cc2-c2ccc(Cl)cc2)cc1 (stereo not shown) [Compound 179],36
15,CCCCCCCCNC(=O)CCc1cc(-c2ccc(Cl)cc2)n(-c2ccc(OC)cc2)n1 [Compound 186],37

# Same assay, conditions: po, 336 h; 15 mpk p.o., rat; read-out: % INH. p.o. (percentage inhibition of pad swelling)
row,Structure (SMILES),inhibition in vivo at 15 mg/kg [%]
1,COc1ccc(-n2nc(CCC(=O)N(C)OC(C)=O)cc2-c2ccc(Cl)cc2)cc1 [Compound 140],77
2,"COc1ccc(-n2nc(CCC(=O)O)c(Br)c2-c2ccc(Cl)cc2)cc1 [Compound 147, 3-[4-Bromo-5-(4-Chlorophenyl)-1-(4-methoxyphenyl)-3-pyrazolyl]-propionic acid]",79
3,COc1ccc(-n2nc(CCC(=O)N(C)O)c(Cl)c2-c2ccc(Cl)cc2)cc1 [Compound 149],68
4,COc1ccc(-n2nc(CCC(=O)NO)c(Br)c2-c2ccc(Cl)cc2)cc1 [Compound 150],70
5,"CCOC(=O)C(=O)NCCc1cc(-c2ccc(Cl)cc2)n(-c2ccc(OC)cc2)n1 [Compound 160, Ethyl 2-[5-(4-chlorophenyl)-1-(4-methoxyphenyl)-3-pyrazolyl]-ethylamine-N-oxoacetate]",9
6,COc1ccc(-n2nc(CCNC(=O)C(=O)N(C)O)cc2-c2ccc(Cl)cc2)cc1 [Compound 163],28
7,COc1ccc(-n2nc(CCCNC(=O)C(=O)NO)cc2-c2ccc(Cl)cc2)cc1 [Compound 164],13
8,COc1ccc(-n2nc(CCNC(=O)C(=O)NO)cc2-c2ccc(Cl)cc2)cc1 [Compound 165],41
9,"COc1ccc(-n2nc(CCC(=O)N(OC(C)=O)C(C)=O)cc2-c2ccc(Cl)cc2)cc1 [Compound 172, N-Acetyl-N-acetoxy-[5-(4-chlorophenyl)-1-(4-methoxyphenyl)-3-pyrazolyl]-propanamide]",83
10,"COc1ccc(-n2nc(CCC(C)=NNc3nccs3)cc2-c2ccc(Cl)cc2)cc1 [Compound 173, 5-(4-Chlorophenyl)-1-(4-methoxyphenyl)-3-(3-oxobutyl)pyrazole thiazol-2-yl hydrazone]",39
11,COc1ccc(-n2nc(CCC=NNc3nccs3)cc2-c2ccc(Cl)cc2)cc1 [Compound 174],37
12,COc1ccc(-n2nc(CCC(=NNc3nccs3)c3ccccc3)cc2-c2ccc(Cl)cc2)cc1 [Compound 176],6
13,CCC(O)CCc1cc(-c2ccc(Cl)cc2)n(-c2ccc(OC)cc2)n1 (stereo not shown) [Compound 177],16
14,COc1ccc(-n2nc(CCC(O)c3ccccc3)cc2-c2ccc(Cl)cc2)cc1 (stereo not shown) [Compound 178],8
15,CCC(=O)CCc1cc(-c2ccc(Cl)cc2)n(-c2ccc(OC)cc2)n1 [Compound 180],32
16,COc1ccc(-n2nc(CCC(=O)c3ccccc3)cc2-c2ccc(Cl)cc2)cc1 [Compound 181],30
17,COc1ccc(-n2nc(CCC(=O)O)c(Cl)c2-c2ccc(Cl)cc2)cc1 [Compound 182],71
18,"COc1ccc(-n2nc(CCC(=N)N(C)O)cc2-c2ccc(Cl)cc2)cc1 [Compound 185, N-Hydroxy-N-methyl-2-[5-(4-chlorophenyl)-1-(4-methoxyphenyl)-3-pyrazolyl]ethylcarboximidamide Monohydrate]",5

# Same assay, conditions: po, 336 h; 25 mpk p.o., rat; read-out: % INH. p.o. (percentage inhibition of pad swelling)
row,Structure (SMILES),inhibition in vivo at 25 mg/kg [%]
1,"COc1ccc(-n2nc(CCCNO)cc2-c2ccc(Cl)cc2)cc1 [Compound 151, N-[3-[5-(4-Chlorophenyl)-1-(4-methoxyphenyl)-3-pyrazolyl]propyl]hydroxyl-amine]",42

# Same assay, conditions: po, 336 h; 40 mpk p.o., rat; read-out: % INH. p.o. (percentage inhibition of pad swelling)
row,Structure (SMILES),inhibition in vivo at 40 mg/kg [%]
1,COc1ccc(-n2nc(CCC(=O)N(C)O)c(Br)c2-c2ccc(Cl)cc2)cc1 [Compound 148],15
